Reference: BindingDB's records for doi:10.7270/Q2251GJ9 (The Scripps Research Institute Molecular Screening Center, 2007)
Structures can show the parent of a compound that is named as a salt.

Target: Sphingosine 1-phosphate receptor 1 (Homo sapiens, UniProt P21453)
Assay: direct activation of human S1P1 – cell-based, agonist mode, 60K MLSMR set, dose response (AID 468)
[1] = inactive by the depositor's call

Sequence of Sphingosine 1-phosphate receptor 1 (P21453 whole entry): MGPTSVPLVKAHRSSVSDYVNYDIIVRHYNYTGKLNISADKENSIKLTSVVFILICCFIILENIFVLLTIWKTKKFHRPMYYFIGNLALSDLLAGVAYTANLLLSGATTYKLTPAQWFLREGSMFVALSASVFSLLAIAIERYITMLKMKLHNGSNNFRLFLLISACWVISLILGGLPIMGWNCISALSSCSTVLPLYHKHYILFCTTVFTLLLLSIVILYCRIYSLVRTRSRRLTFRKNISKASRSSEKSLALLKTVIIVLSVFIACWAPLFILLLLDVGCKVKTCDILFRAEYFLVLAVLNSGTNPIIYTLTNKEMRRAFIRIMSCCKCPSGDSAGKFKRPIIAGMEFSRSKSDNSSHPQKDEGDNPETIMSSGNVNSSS

SMILES	EC50 [µM]	EC50 [1] [µM]
CCOc1ccc(-c2noc(-c3cccnc3)n2)cc1OC [3-(4-ethoxy-3-methoxy-phenyl)-5-(3-pyridyl)-1,2,4-oxadiazole]	1.2	–
Cc1cc(C=c2sc3nc4ccccc4n3c2=O)c(C)n1-c1ccccn1 [2-[(2,5-dimethyl-1-pyridin-2-yl-pyrrol-3-yl)methylidene]-[1,3]thiazolo[3,2-a]benzimidazol-1-one]	0.132	–
CCN(CC)c1ccc(-n2c(C)c(C(C)=O)c(C(C)=O)c2C)cc1 [1-[1-[4-(diethylamino)phenyl]-4-ethanoyl-2,5-dimethyl-pyrrol-3-yl]ethanone]	–	11.4
N#Cc1ccc(NC(=O)Nc2ccc(Cl)cc2)cc1 [1-(4-chlorophenyl)-3-(4-cyanophenyl)urea]	9.38	–
O=S(=O)(c1cccs1)N1CCN(CC(O)COc2cc(Cl)ccc2Cl)CC1 (configuration not stated) [1-(2,5-dichlorophenoxy)-3-(4-thiophen-2-ylsulfonyl-1-piperazinyl)-2-propanol]	4.2	–
Oc1ccc(C2NCc3ccccc3-n3cccc32)cc1Cl (configuration not stated) [2-chloranyl-4-(5,6-dihydro-4H-pyrrolo[1,2-a][1,4]benzodiazepin-4-yl)phenol;hydrochloride]	3.04	–
CCOC(=O)c1ccc(NC(=O)CCc2nc(-c3ccc(Cl)cc3)no2)cc1 [4-[3-[3-(4-chlorophenyl)-1,2,4-oxadiazol-5-yl]propanoylamino]benzoic acid ethyl ester]	–	13.3
CC1=CC(C)(C)Nc2ccc(OC(=O)c3ccco3)cc21	–	13.3
CCCCNc1cc(C)nc(NCc2ccccc2)n1 [2-N-benzyl-4-N-butyl-6-methylpyrimidine-2,4-diamine]	4.83	–
NC(=O)c1ccc(OCC(F)(F)C(F)(F)C(F)(F)C(F)(F)C(F)(F)C(F)F)cc1 [4-(2,2,3,3,4,4,5,5,6,6,7,7-dodecafluoroheptoxy)benzamide]	8	–
CCOC(=O)Cc1csc(NC(=O)c2ccc(Br)s2)n1 [2-[2-[(5-bromothiophene-2-carbonyl)amino]thiazol-4-yl]acetic acid ethyl ester]	–	13.8
CCN(CC)C(=O)C1CCN(S(=O)(=O)c2ccc3oc4ccccc4c3c2)CC1 [1-(2-dibenzofuranylsulfonyl)-N,N-diethyl-4-piperidinecarboxamide]	–	31.7

Now from value to molecule:

EC50 [µM]	EC50 [1] [µM]	SMILES
2.04	–	CC(=O)c1c(C)[nH]c(C(=O)OCCCCN2C(=O)c3ccccc3C2=O)c1C [4-acetyl-3,5-dimethyl-1H-pyrrole-2-carboxylic acid 4-(1,3-dioxo-2-isoindolyl)butyl ester]
–	11.8	CC1Cc2cc(-c3csc(NC(=O)Cc4cccs4)n3)ccc2N1S(C)(=O)=O (configuration not stated) [MLS000027766]
> 95	–	CCn1c(-c2cccc(Cl)c2)n[nH]c1=S [SMR000104244]
9.29	–	CS(=O)(=O)n1nc(OC(=O)c2cccc3ccccc23)cc1N [(5-amino-1-methylsulfonylpyrazol-3-yl) naphthalene-1-carboxylate]
15.6	–	CC(=N)C(C#N)C(=O)CSc1nc2cc(Cl)ccc2s1 (configuration not stated) [(E)-3-amino-2-[2-[(5-chloro-1,3-benzothiazol-2-yl)sulfanyl]acetyl]but-2-enenitrile]
9.62	–	Cc1ccc(S(=O)(=O)Nc2cccc3ncccc23)s1 [5-methyl-N-quinolin-5-ylthiophene-2-sulfonamide]
0.986	–	COc1ccc(-c2n[nH]cc2-c2ccc3c(c2)OCCO3)c(O)c1 [(6E)-6-[4-(2,3-dihydro-1,4-benzodioxin-6-yl)-1,2-dihydropyrazol-3-ylidene]-3-methoxycyclohexa-2,4-dien-1-one]
2.05	–	Cc1cc(C)cc(-c2nc(-c3ccncc3)no2)c1 [5-(3,5-dimethylphenyl)-3-(4-pyridyl)-1,2,4-oxadiazole]
3.04	–	Cc1cc2nc(-c3ccc(NC(=O)C(C)C)cc3)oc2cc1C [MLS000109473]
> 10	–	CCC(C)c1ccc2oc(-c3ccc(NC(=O)c4nnc[nH]4)cc3)nc2c1 (configuration not stated) [N-[4-(5-sec-butyl-1,3-benzoxazol-2-yl)phenyl]-1H-1,2,4-triazole-3-carboxamide]
